The results in this text go back to ChEMBL document CHEMBL1201862, “PubChem BioAssay data set” (2004).

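Each compound was tested at five concentrations against cells in 96-well plates for 48 hours. Here, GI50 denotes the concentration required for 50% inhibition of growth.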 Active and inactive are the calls of the source. No stated cut-off is given here; in the data, active = GI50 up to about 1.1 µM and inactive = higher.

Among the test systems are A549; COLO 205; HCT-15; HL-60; M14; NCI-H226; NCI-H522; OVCAR-5; OVCAR-8; RPMI-8226; RXF 393; SF-268; UO-31; UACC-257; HOP-92.
Common to all, as to experiment: NCI tumour cell line growth inhibition, 48 h

As to `O=C1NC2(C=Cc3c(ccc4ccccc34)O2)Oc2ccccc21` (stereo not given), the GI50 was 18.7 µM (inactive) with A549; 14.8 µM (inactive) in the assay with COLO 205; 7.46 µM with HCT-15; 4.81 µM (inactive) in the assay with HL-60; 31 µM (inactive) in the assay with M14; 26.5 µM (inactive) with NCI-H226. The GI50 with NCI-H522 was 11.4 µM (inactive); in the assay with OVCAR-5, 36.6 µM (inactive); in the assay with OVCAR-8 it was 26.9 µM (inactive); in the assay with RPMI-8226 it was 6.08 µM (inactive); in the assay on RXF 393, 14.3 µM (inactive); in the assay on SF-268, 17.2 µM (inactive). Also, the GI50 in the assay on UO-31 was 1.76 µM (inactive).
As for `CC1CC2C(=O)N(c3ccccc3)C(=O)C2c2[nH]c3ccccc3c21` (stereo not given), the GI50 is 94 µM (inactive) in the assay with A549; 73.3 µM (inactive) with COLO 205; greater than 100 µM with HCT-15; 31.8 µM (inactive) with HL-60; 78.9 µM (inactive) in the assay on M14; 59.3 µM (inactive) with OVCAR-8. The GI50 is 37.6 µM (inactive) with RPMI-8226, 30.3 µM (inactive) with RXF 393 and > 100 µM (inactive) with SF-268.
In the case of `CCc1ccccc1NC(=O)C(=O)C(C(=O)c1ccc(OC)cc1)c1ccc(OC)cc1` (stereo not given), the GI50 in the assay on A549 was > 100 µM (inactive); in the assay with COLO 205, > 100 µM (inactive); with HCT-15, greater than 100 µM; in the assay with HL-60, > 100 µM (inactive); in the assay with M14, > 100 µM (inactive); in the assay on NCI-H226, > 100 µM (inactive). Besides, the GI50 with NCI-H522, in the assay on OVCAR-5, with OVCAR-8, with RPMI-8226, with SF-268 and with UACC-257 was > 100 µM (inactive) each time. For the same molecule, in the assay on UO-31, the GI50 is > 100 µM (inactive).
With `CCOC(=O)N1CCc2cc(OC)c(OC)c3c2C1CC3=O` (stereo not given), the GI50 is > 100 µM (inactive) in the assay on A549; > 100 µM (inactive) in the assay on COLO 205; greater than 100 µM in the assay on HCT-15; > 100 µM (inactive) in the assay with HL-60; > 100 µM (inactive) with HOP-92; > 100 µM (inactive) in the assay on M14. Moreover, the GI50 in the assay with NCI-H522, in the assay on OVCAR-5, in the assay on OVCAR-8, in the assay with RPMI-8226, in the assay on RXF 393 and with SF-268 was > 100 µM (inactive) throughout. The GI50 with UACC-257 and with UO-31 was > 100 µM (inactive) in each case.
Consider `O=C(NCCCCCCCCNC(=O)c1cnc2ccccc2n1)c1cnc2ccccc2n1`, for which the GI50 is > 100 µM (inactive) in the assay with A549; > 100 µM (inactive) in the assay on COLO 205; greater than 100 µM with HCT-15; > 100 µM (inactive) in the assay with HL-60; > 100 µM (inactive) in the assay on HOP-92; > 100 µM (inactive) in the assay on M14. Also, the GI50 in the assay with NCI-H226 is 32.1 µM (inactive); with OVCAR-5 it was > 100 µM (inactive); in the assay with OVCAR-8, > 100 µM (inactive); in the assay on RPMI-8226, > 100 µM (inactive); in the assay with RXF 393 it was > 100 µM (inactive); in the assay with SF-268, > 100 µM (inactive). Further, the GI50 in the assay with UACC-257 and with UO-31 was > 100 µM (inactive) throughout.
With `CN(OC(=O)CC(=O)c1ccccc1)C(=O)Cc1ccccc1`, the GI50 in the assay on A549 was > 100 µM (inactive); with COLO 205, > 100 µM (inactive); in the assay on HCT-15, greater than 100 µM; in the assay with HL-60, > 100 µM (inactive); in the assay on M14, > 100 µM (inactive); with NCI-H226, > 100 µM (inactive). The GI50 in the assay with NCI-H522 was > 100 µM (inactive); with OVCAR-5, > 100 µM (inactive); in the assay with OVCAR-8, > 100 µM (inactive); in the assay on RPMI-8226, 46.7 µM (inactive); in the assay on SF-268 it was > 100 µM (inactive); in the assay with UACC-257 it was > 100 µM (inactive). Moreover, the GI50 in the assay with UO-31 is > 100 µM (inactive).
For the molecule `O=C1c2ccccc2C(=O)N1C/C=N/NS(=O)(=O)c1ccc(F)cc1`, the GI50 in the assay with A549 was > 100 µM (inactive); in the assay on COLO 205 it was > 100 µM (inactive); in the assay with HCT-15, greater than 100 µM; in the assay on HL-60, > 100 µM (inactive); in the assay on NCI-H226, > 100 µM (inactive); with NCI-H522, > 100 µM (inactive). Further, the GI50 in the assay with OVCAR-8, in the assay on RPMI-8226, in the assay on SF-268, with UACC-257 and in the assay on UO-31 was > 100 µM (inactive) throughout.
Regarding `O=C1CCC(=O)N1CNc1cccc(NCN2C(=O)CCC2=O)c1`, the GI50 with A549 is > 100 µM (inactive); in the assay with COLO 205 it was > 100 µM (inactive); with HCT-15 it was 61 µM; in the assay on HL-60, 20.1 µM (inactive); with HOP-92, > 100 µM (inactive); in the assay with M14 it was > 100 µM (inactive). Also, the GI50 with NCI-H522 is > 100 µM (inactive); in the assay on OVCAR-5, > 100 µM (inactive); in the assay on OVCAR-8, > 100 µM (inactive); in the assay with RPMI-8226 it was 17.3 µM (inactive); in the assay on RXF 393, > 100 µM (inactive); in the assay on SF-268, 70 µM (inactive). The GI50 in the assay on UACC-257 was 71.6 µM (inactive); in the assay on UO-31 it was > 100 µM (inactive).
With `Cc1ccc(C)c(NC(=O)CC/C(=N\NC(=O)C(N)=O)C(C)C(=O)c2ccc(O)cc2)c1` (stereo not given), the GI50 in the assay on A549 is > 100 µM (inactive); in the assay with COLO 205 it was > 100 µM (inactive); in the assay with HCT-15 it was greater than 100 µM; in the assay on HL-60, > 100 µM (inactive); in the assay on HOP-92 it was > 100 µM (inactive); in the assay with M14 it was > 100 µM (inactive). Also, the GI50 is > 100 µM (inactive) in the assay with NCI-H226; > 100 µM (inactive) in the assay on OVCAR-5; > 100 µM (inactive) with OVCAR-8; 61.1 µM (inactive) in the assay on RXF 393; > 100 µM (inactive) in the assay on SF-268; > 100 µM (inactive) in the assay on UACC-257. The GI50 in the assay with UO-31 is > 100 µM (inactive).
With `Cn1nc(-c2ccccc2)c(N=[N+]=[N-])cc1=O`, the GI50 in the assay on A549 is > 100 µM (inactive); in the assay with COLO 205, > 100 µM (inactive); in the assay on HCT-15, greater than 100 µM; with HL-60 it was > 100 µM (inactive); in the assay with M14 it was > 100 µM (inactive); with NCI-H226, > 100 µM (inactive). The GI50 in the assay with NCI-H522, in the assay on OVCAR-5, with OVCAR-8, with RPMI-8226, with RXF 393 and with SF-268 was > 100 µM (inactive) in each case. Further, the GI50 with UACC-257 and in the assay on UO-31 was > 100 µM (inactive) in each case.
In the case of `CN(C)c1ccc(/C=C2\Cc3ccccc3C2=O)cc1Br`, the GI50 is 61.4 µM (inactive) in the assay on A549; 92.9 µM (inactive) in the assay with COLO 205; 35.7 µM in the assay on HCT-15; 54.6 µM (inactive) in the assay on M14; 23.4 µM (inactive) in the assay on NCI-H522; 79.1 µM (inactive) in the assay with OVCAR-5. The GI50 in the assay with OVCAR-8 is 63.5 µM (inactive); in the assay with RPMI-8226, 24.1 µM (inactive); in the assay with SF-268 it was 32.7 µM (inactive); in the assay with UACC-257, 44.8 µM (inactive); with UO-31, 36.6 µM (inactive).
Turning to `C=CC[C@H]1C[C@@]2(C)OC[C@H](C(C)C)N2C1=O`, the GI50 with A549 is > 100 µM (inactive); in the assay on COLO 205 it was > 100 µM (inactive); with HCT-15, greater than 100 µM; in the assay on HOP-92 it was > 100 µM (inactive); with OVCAR-5, > 100 µM (inactive); in the assay with OVCAR-8, > 100 µM (inactive). Also, the GI50 in the assay on RPMI-8226, in the assay on RXF 393, in the assay with SF-268 and in the assay with UACC-257 was > 100 µM (inactive) each time.
Consider `Cn1c(=O)c2c(ncn2CCCCn2ccnc2[N+](=O)[O-])n(C)c1=O`, for which the GI50 in the assay on A549 is > 100 µM (inactive); with COLO 205 it was > 100 µM (inactive); with HCT-15 it was greater than 100 µM; with HL-60, > 100 µM (inactive); in the assay on M14, > 100 µM (inactive); with NCI-H226 it was > 100 µM (inactive). Besides, the GI50 in the assay with NCI-H522, in the assay with OVCAR-5, with OVCAR-8, with RPMI-8226, in the assay with RXF 393 and in the assay with SF-268 was > 100 µM (inactive) throughout. Moreover, the GI50 in the assay with UO-31 was > 100 µM (inactive).
As to `COC(=O)C1[C@@H](C(=O)OC)C(=O)O[C@H]1c1cc(OC)c(OC)c(OC)c1` (stereo not given in full), the GI50 in the assay with A549 is > 100 µM (inactive); in the assay with COLO 205, > 100 µM (inactive); in the assay with HCT-15 it was greater than 100 µM; in the assay with HL-60 it was > 100 µM (inactive); with HOP-92, > 100 µM (inactive); in the assay on M14, > 100 µM (inactive). Moreover, the GI50 with NCI-H226, in the assay with OVCAR-5, in the assay with OVCAR-8, in the assay with RPMI-8226, in the assay with RXF 393 and with SF-268 was > 100 µM (inactive) throughout. Moreover, the GI50 in the assay on UACC-257 and in the assay on UO-31 was > 100 µM (inactive) throughout.
Consider `CCCCCCCCCCCCCCCCCC[N+](C)(C)Cc1ccc(C[N+](C)(C)CCCCCCCCCCCCCCCCCC)cc1`, for which the GI50 is 13.6 µM (inactive) in the assay with A549; 34.8 µM (inactive) in the assay on COLO 205; 28 µM with HCT-15; 5.26 µM (inactive) in the assay on HOP-92; 17.3 µM (inactive) in the assay with M14; 5.53 µM (inactive) in the assay on NCI-H226. The GI50 with NCI-H522 is 2.97 µM (inactive); with OVCAR-5 it was 32.9 µM (inactive); with OVCAR-8, 6.5 µM (inactive); in the assay on RPMI-8226, 15.6 µM (inactive); in the assay on RXF 393, 2.71 µM (inactive); in the assay on SF-268, 21.7 µM (inactive). Further, the GI50 in the assay on UACC-257 was 15.9 µM (inactive); with UO-31, 27.7 µM (inactive).
